Assay results published in patent US10301306B2, “Substituted dihydro-1H-pyrrolo[3,2-c]pyridin-4(5H)-ones as RIPK3 inhibitors” (BRISTOL-MYERS SQUIBB COMPANY, priority 2014, dated 2019).

molecular target: RIPK3 (Homo sapiens (Human), UniProt Q9Y572); assay: RIPK3 HTRF Kinase Assay; assay type: binding; details: RIPK3 1 nM; HTRF probe 23 nM; 60 min at room temperature; read-out: IC50 for Inhibition of RIPK3
Sequence (Q9Y572 whole entry, species assumed): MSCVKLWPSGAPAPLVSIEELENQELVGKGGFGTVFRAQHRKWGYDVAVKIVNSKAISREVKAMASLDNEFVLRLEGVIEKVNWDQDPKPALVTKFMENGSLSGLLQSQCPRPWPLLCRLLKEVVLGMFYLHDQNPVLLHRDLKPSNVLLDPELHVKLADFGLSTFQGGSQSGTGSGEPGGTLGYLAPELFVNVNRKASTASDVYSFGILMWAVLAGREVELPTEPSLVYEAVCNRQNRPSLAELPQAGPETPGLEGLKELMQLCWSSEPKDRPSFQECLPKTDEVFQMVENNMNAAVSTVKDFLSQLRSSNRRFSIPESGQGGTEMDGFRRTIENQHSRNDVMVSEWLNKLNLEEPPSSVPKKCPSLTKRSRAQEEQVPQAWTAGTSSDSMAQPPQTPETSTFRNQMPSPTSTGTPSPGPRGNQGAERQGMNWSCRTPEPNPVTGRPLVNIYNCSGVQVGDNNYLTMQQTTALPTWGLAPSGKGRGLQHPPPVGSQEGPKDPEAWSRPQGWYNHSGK

SMILES | IC50
Cc1cc(Cn2c3c(c(-c4cccc(NC(=O)OC(C)(C)C)c4)c2-c2ccncc2)C(=O)NCC3)n(C)n1 [Example 171] | 0.031 to 0.1 µM
COC(=O)c1cccc(-c2c3c(n(Cc4cc(C)nn4C)c2-c2ccncc2)CCNC3=O)c1 [Example 172] | 0.1 to 15 µM
Cc1cc(Cn2c3c(c(-c4cccc(-c5c(C)noc5C)c4)c2-c2ccncc2)C(=O)NCC3)n(C)n1 [Example 173] | 0.1 to 15 µM
Cc1cc(Cn2c3c(c(-c4cccc(N)c4)c2-c2ccncc2)C(=O)NCC3)n(C)n1 [Example 174] | 0.1 to 15 µM
Cc1cc(Cn2c3c(c(-c4cccc(NC(=O)Cc5ccccc5)c4)c2-c2ccncc2)C(=O)NCC3)n(C)n1 [Example 175] | 0.1 to 15 µM
Cc1cc(Cn2c3c(c(-c4cccc(NC(=O)c5ccccc5)c4)c2-c2ccncc2)C(=O)NCC3)n(C)n1 [Example 176] | 0.1 to 15 µM
Cc1cc(Cn2c3c(c(-c4cccc(NC(=O)C5CC5)c4)c2-c2ccncc2)C(=O)NCC3)n(C)n1 [Example 177] | 0.1 to 15 µM
Cc1cc(Cn2c3c(c(-c4cccc(NC=O)c4)c2-c2ccncc2)C(=O)NCC3)n(C)n1 [Example 178] | 0.1 to 15 µM
CCC(=O)Nc1cccc(-c2c3c(n(Cc4cc(C)nn4C)c2-c2ccncc2)CCNC3=O)c1 [Example 179] | 0.1 to 15 µM
Cc1cc(Cn2c3c(c(-c4cccc(CCc5ccccc5)c4)c2-c2ccncc2)C(=O)NCC3)n(C)n1 [Example 180] | 0.1 to 15 µM
Cc1cc(Cn2c3c(c(-c4cccc(CCC5CCCCC5)c4)c2-c2ccncc2)C(=O)NCC3)n(C)n1 [Example 181] | 0.1 to 15 µM
Cc1cc(Cn2c3c(c(-c4ccc(F)cc4)c2-c2ccncc2F)C(=O)NCC3)n(C)n1 [Example 182] | 0.031 to 0.1 µM
COc1cnccc1-c1c(-c2ccc(F)cc2)c2c(n1Cc1cc(C)nn1C)CCNC2=O [Example 183] | < 0.03 µM
Cc1cc(Cn2c3c(c(-c4ccc(F)cc4)c2-c2cn[nH]c2)C(=O)NCC3)n(C)n1 [Example 184] | 0.1 to 15 µM
Cc1cc(Cn2c3c(c(-c4cccc(NC(=O)OC(C)(C)C)c4)c2-c2ccnc(NC(=O)C4CC4)c2)C(=O)NCC3)n(C)n1 [Example 185, tert-Butyl (3-(2-(2-(cyclopropanecarboxamido)pyridin-4-yl)-1-((1,3-dimethyl-1H-pyrazol-5-yl)methyl)-4-oxo-4,5,6,7-tetrahydro-1H-pyrrolo[3,2-c]pyridin-3-yl)phenyl)carbamate] | 0.1 to 15 µM
